US11174233B1, “Anti-cancer compounds having oxazolone derivation” (King Abdulaziz University, priority 2019, dated 2021)
Where two headings read alike, the source gives them in different places.

Assays:
[1] = test system: HL-60 leukemia cells; experiment: CellTiter-Blue cell viability assay on HL-60; assay type: cell-based; details: Homo sapiens, HL-60 cells, 48 h
Procedure: (§1) HL-60 were purchased from CLS Cell Line Service GmbH (Eppelheim, Germany) and cultured in Roswell Park Memorial Institute-1640 medium (RPMI-1640; Thermo Fisher Scientific, Inc; Waltham, Mass., USA) supplemented with 10% fetal bovine serum (FBS; Thermo Fisher Scientific) and ciprofloxacin (10 μg/mL; Cipla Limited; Mumbai, India), at 37° C. with 5% CO2 in a humidified incubator.
The CellTiter®-Blue Cell Viability assay was acquired from Promega Corporation (Madison, Wis., USA). Cell viability assay was performed as follows. The cells (10^4/well) were incubated with a concentration gradient of KIM-161C and KIM-241C ranging from 0.01 to 100 in 96-well plates for 48 h at 37° C. Subsequently, 20 μL CellTiter®-Blue Cell Viability reagent was added to each well and incubated for an additional 2 h for the development of fluorescence. The fluorescence emission was measured at 590 nm using the SpectraMax® i3× Multi-Mode microplate reader (Molecular Devices, LLC; San Jose, Calif., USA.) and plotted against drug concentrations to determine the mean inhibitory concentration of KIM-161C and KIM-241C producing 50% decrease in cell viability (IC50).

[2] = test system: HL-60 leukemia cells; experiment: Apoptosis detection by caspase 3 activity in HL-60 cells; assay type: cell-based, human
Procedure: as §1
The caspase family of cysteine proteases are important regulators in the apoptosis. Caspase 3 belongs to the effector (caspase 3, 6 and 7) class of proteases and it is a key protease that is activated during early stages of apoptosis. […] The activated caspase 3 is a marker for cell apoptosis that proteolytically cleaves and activates other caspases and intracellular targets [Patel, T.; Gores, G. J.; Kaufmann, S. H., The role of proteases during apoptosis. FASEB journal: official publication of the Federation of American Societies for Experimental Biology 1996, 10 (5), 587-97].
FITC conjugated active caspase-3 antibody (BD biosciences, USA) was used to detect the active form of caspase 3 in the cells undergoing apoptosis. […] The collected cells were washed twice in cold 1×PBS and then re-suspended in a 0.5 mL BD Cytofix/Cytoperm solution followed by 20 min incubation on ice. After incubation, cells were washed twice in a BD Perm/Wash buffer (1×) and then labelled with 5 μL of FITC rabbit anti-caspase 3 antibodies. The labelled cells were washed again with wash buffer and re-suspended in a 0.5 mL buffer and analyzed by acquiring a minimum of 5000 events on the FACS Aria III cell analyzer and sorter.

[3] = test system: MCF-7 (breast) cancer cells; experiment: SRB cytotoxicity assay against MCF7; assay type: cell-based, human; details: Homo sapiens, 72 h treatment
Procedure: (§2) MCF-7 (breast) and PC3 (prostate) cancer cells were each grown in RPMI-1640 medium supplemented with 10% heat inactivated FBS, 50 units/mL of penicillin, and […] of streptomycin. The cultures were maintained at 37° C. in a humidified atmosphere containing 5% CO2. The cells were maintained as “monolayer culture” by serial sub-culturing.
(§3) Cytotoxicity was determined using SRB method as previously described by Skehan et al. [Skehan P.; Storeng R.; Scudiero D.; Monks A.; McMahon J.; al., V. D. e., New colorimetric cytotoxicity assay for anticancer drug screening. […] Exponentially growing cells were collected using 0.25% Trypsin-EDTA and seeded in 96-well plates at 1000-2000 cells/well in RPMI-1640 supplemented medium. After 24 h, cells were incubated for 72 h with various concentrations of the tested compounds. Following 72 h treatment, the cells would be fixed with 10% trichloroacetic acid for 1 h at 4° C. Wells were stained for 10 min at room temperature with 0.4% SRB dissolved in 1% acetic acid. The plates were air dried for 24 h and the dye was solubilized with Tris-HCl for 5 min on a shaker at 1600 rpm. The optical density (OD) of each well was measured spectrophotometrically at 564 nm with an ELISA microplate reader (ChroMate-4300, FL, USA). The IC50 values were calculated according to the equation for Boltzman sigmoidal concentration—response curve using the nonlinear regression fitting models (Graph Pad, Prism Version 5).

[4] = test system: HL-60 leukemia cells; experiment: Cell cycle analysis of Hoechst 33342 stained HL-60 cells by flow cytometry; assay type: cell-based, human; details: 48 h
Procedure: as §1
The cells (3.5×10^5) were incubated with two different concentrations of KIM-161C at 37° C. for 48 h. Subsequently, the cells were collected and washed twice with ice-cold PBS (1×). The washed cells were fixed on ice for 20 min using a fixation buffer containing paraformaldehyde. Hoechst 33342 (10 μg/mL; Thermo Fisher Scientific, Inc.) was used for staining. The cells were then incubated in the dark for 30 min on ice. A minimum total of 20,000 events were acquired using a BD FACSAria III flow cytometer. Flowlogic version 7.2.1 software (Inivai Technologies, Victoria, Australia) was used to obtain the percentages of cells in the G1, S, and G2/M phases in the singlet-gated population.

[5] = test system: PC3 (prostate) cancer cells; experiment: SRB cytotoxicity assay against PC3; assay type: cell-based, human; details: Homo sapiens, 72 h treatment
Procedure: as §2, §3

IC50 ([1]; read-out: IC50 value, HL-60 cell viability) [nM]	IC50 ([1]; read-out: IC50 value, HL-60 cell viability (could not be obtained even at this concentration)) [nM]	melting point [°C]	SMILES	increase in the cells undergoing apoptosis as compared to the basal apoptosis ([2]; 362.5 nM, 24 h)	increase in the cells undergoing apoptosis as compared to the basal apoptosis ([2]; 362.5 nM, 48 h)	increase in the cells undergoing apoptosis as compared to the basal apoptosis ([2]; 725 nM, 24 h)	increase in the cells undergoing apoptosis as compared to the basal apoptosis ([2]; 725 nM, 48 h) [fold]	IC50 [3] [nM]	cells in the G1 phase ([4]; 362.5 nM)	increase in the cells in G2/M stage as compared to the control ([4]; 725 nM) [fold]	IC50 [5] [nM]
262	–	–	COc1ccc(/C=C2\N=C(C)N(c3ccc(CC(=O)NCc4ccccc4)cc3)C2=O)cc1 [KIM-161C, (Z)—N-benzyl-2-(4-(4-(4-methoxybenzylidene)-2-methyl-5-oxo-4,5-dihydro-1H-imidazol-1-yl)phenyl)acetamide]	more than 2 fold	more than 2 fold	more than 9.5 fold	> 8.45	3500	increase	3	–
–	> 20000	199 to 200	O=C(Cc1ccc(N2C(=O)/C(=C/c3ccco3)N=C2c2ccccc2)cc1)NCc1ccccc1 [KIM-241C, (Z)—N-benzyl-2-(4-(4-(furan-2-ylmethylene)-5-oxo-2-phenyl-4,5-dihydro-1H-imidazol-1-yl)phenyl)acetamide]	–	–	–	–	145	–	–	243
